Assay results taken from ChEMBL document CHEMBL1201862, “PubChem BioAssay data set” (2004).
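Protocol summary: plate cells (96-well), add compound at 5 concentrations, incubate 48 h, interpolate endpoints linearly. GI50: concentration for 50% inhibition of growth.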 The source made the active and inactive calls. No stated cut-off is given here; in the data, active = GI50 up to about 1.1 µM and inactive = higher.

Legend:
Test in all cases: NCI tumour cell line growth inhibition, 48 h
786-0 = test system: 786-0
A498 = test system: A498
A549 = test system: A549
ACHN = test system: ACHN
BT-549 = test system: BT-549
CAKI-1 = test system: CAKI-1
CCRF-CEM = test system: CCRF-CEM
COLO 205 = test system: COLO 205
DU-145 = test system: DU-145
EKVX = test system: EKVX
HCC 2998 = test system: HCC 2998
HCT-116 = test system: HCT-116
HCT-15 = test system: HCT-15
HL-60 = test system: HL-60
HOP-62 = test system: HOP-62
HT-29 = test system: HT-29
Hs-578T = test system: Hs-578T
IGROV-1 = test system: IGROV-1
K562 = test system: K562
KM12 = test system: KM12
LOX IMVI = test system: LOX IMVI
M14 = test system: M14
MCF7 = test system: MCF7
MDA-MB-231 = test system: MDA-MB-231
MDA-MB-435 = test system: MDA-MB-435
MDA-N = test system: MDA-N
MOLT-4 = test system: MOLT-4
Malme-3M = test system: Malme-3M
NCI-H226 = test system: NCI-H226
NCI-H23 = test system: NCI-H23
NCI-H460 = test system: NCI-H460
NCI-H522 = test system: NCI-H522
NCI/ADR-RES = test system: NCI/ADR-RES
OVCAR-3 = test system: OVCAR-3
OVCAR-4 = test system: OVCAR-4
OVCAR-5 = test system: OVCAR-5
OVCAR-8 = test system: OVCAR-8
PC-3 = test system: PC-3
RPMI-8226 = test system: RPMI-8226
RXF 393 = test system: RXF 393
SF-268 = test system: SF-268
SF-295 = test system: SF-295
SF-539 = test system: SF-539
SK-MEL-28 = test system: SK-MEL-28
SK-MEL-2 = test system: SK-MEL-2
SK-MEL-5 = test system: SK-MEL-5
SK-OV-3 = test system: SK-OV-3
SN12C = test system: SN12C
SNB-19 = test system: SNB-19
SNB-75 = test system: SNB-75
SR = test system: SR
SW-620 = test system: SW-620
T47D = test system: T47D
TK-10 = test system: TK-10
U-251 = test system: U-251
UACC-257 = test system: UACC-257
UACC-62 = test system: UACC-62
UO-31 = test system: UO-31

With COC(=O)C1(OC(=O)Sc2ccccc2)CCN(C)CC1 the GI50 (786-0) was 19 µM (inactive), the GI50 (A498) was 21.8 µM (inactive) and the GI50 (A549) was 11.4 µM (inactive). For the same compound, the GI50 (ACHN) was 15.7 µM (inactive), the GI50 (BT-549) was 1.5 µM (inactive) and the GI50 (CAKI-1) was 4.95 µM (inactive). For the same compound, the GI50 (CCRF-CEM) was 1.84 µM (inactive), the GI50 (COLO 205) was 9.82 µM (inactive) and the GI50 (DU-145) was 23.8 µM (inactive). The GI50 (EKVX) was 9.1 µM (inactive), the GI50 (HCC 2998) was 28.6 µM (inactive) and the GI50 (HCT-116) was 14.9 µM (inactive). For the same compound, the GI50 (HCT-15) was 34.9 µM, the GI50 (HL-60) was 5.96 µM (inactive) and the GI50 (HOP-62) was 32.1 µM (inactive). The GI50 (HT-29) was 21.4 µM (inactive), the GI50 (Hs-578T) was 21.1 µM (inactive) and the GI50 (IGROV-1) was 4.75 µM (inactive). For the same compound, the GI50 (K562) was 22.4 µM (inactive), the GI50 (KM12) was 10.9 µM (inactive) and the GI50 (LOX IMVI) was 8.07 µM (inactive). For the same compound, the GI50 (M14) was 15.5 µM (inactive), the GI50 (MCF7) was > 52 µM (inactive) and the GI50 (MDA-MB-231) was 16.9 µM (inactive). For the same compound, the GI50 (MDA-MB-435) was 13.8 µM (inactive), the GI50 (MDA-N) was 17.8 µM (inactive) and the GI50 (MOLT-4) was 6.68 µM (inactive). The GI50 (Malme-3M) was 63.7 µM (inactive), the GI50 (NCI-H226) was 13.6 µM (inactive) and the GI50 (NCI-H23) was 14.1 µM (inactive). The GI50 (NCI-H460) was 23.6 µM (inactive), the GI50 (NCI-H522) was 16.2 µM (inactive) and the GI50 (NCI/ADR-RES) was 13.1 µM (inactive). For the same compound, the GI50 (OVCAR-3) was 11 µM (inactive), the GI50 (OVCAR-4) was 23.2 µM (inactive) and the GI50 (OVCAR-5) was 35.3 µM (inactive). The GI50 (OVCAR-8) was 16.7 µM (inactive), the GI50 (PC-3) was 7.57 µM (inactive) and the GI50 (RPMI-8226) was 6.38 µM (inactive). The GI50 (RXF 393) was 14.3 µM (inactive), the GI50 (SF-268) was 18.4 µM (inactive) and the GI50 (SF-295) was 25.2 µM (inactive). For the same compound, the GI50 (SF-539) was 10.8 µM (inactive), the GI50 (SK-MEL-28) was 27.9 µM (inactive) and the GI50 (SK-MEL-2) was 58.3 µM (inactive). For the same compound, the GI50 (SK-MEL-5) was 22.6 µM (inactive), the GI50 (SK-OV-3) was 33.3 µM (inactive) and the GI50 (SN12C) was 3.9 µM (inactive). The GI50 (SNB-19) was 28.3 µM (inactive), the GI50 (SNB-75) was 16.8 µM (inactive) and the GI50 (SR) was 10.8 µM (inactive). The GI50 (SW-620) was 21.7 µM (inactive), the GI50 (T47D) was 31.3 µM (inactive) and the GI50 (TK-10) was 41.3 µM (inactive). The GI50 (U-251) was 12.1 µM (inactive), the GI50 (UACC-257) was 20.2 µM (inactive) and the GI50 (UACC-62) was 21.3 µM (inactive). For the same compound, the GI50 (UO-31) was 3.79 µM (inactive).
CNC(=O)CNC(=O)N(C[C@@H]1CCCN1C(=O)[C@H](CC(C)C)NC(=O)OC(C)(C)C)C(C)C was tested, and the GI50 (786-0) was > 100 µM (inactive), the GI50 (A498) was > 100 µM (inactive) and the GI50 (A549) was > 100 µM (inactive). For the same compound, the GI50 (ACHN) was > 100 µM (inactive), the GI50 (BT-549) was > 100 µM (inactive) and the GI50 (CAKI-1) was > 100 µM (inactive). For the same compound, the GI50 (CCRF-CEM) was > 100 µM (inactive), the GI50 (COLO 205) was > 100 µM (inactive) and the GI50 (DU-145) was > 100 µM (inactive). For the same compound, the GI50 (EKVX) was > 100 µM (inactive), the GI50 (HCC 2998) was > 100 µM (inactive) and the GI50 (HCT-116) was > 100 µM (inactive). The GI50 (HCT-15) was greater than 100 µM, the GI50 (HL-60) was > 100 µM (inactive) and the GI50 (HOP-62) was > 100 µM (inactive). The GI50 (HT-29) was > 100 µM (inactive), the GI50 (Hs-578T) was > 100 µM (inactive) and the GI50 (IGROV-1) was > 100 µM (inactive). For the same compound, the GI50 (K562) was > 100 µM (inactive), the GI50 (KM12) was > 100 µM (inactive) and the GI50 (LOX IMVI) was > 100 µM (inactive). For the same compound, the GI50 (M14) was > 100 µM (inactive), the GI50 (MCF7) was > 100 µM (inactive) and the GI50 (MDA-MB-231) was > 100 µM (inactive). For the same compound, the GI50 (MDA-MB-435) was > 100 µM (inactive), the GI50 (MDA-N) was > 100 µM (inactive) and the GI50 (MOLT-4) was > 100 µM (inactive). For the same compound, the GI50 (Malme-3M) was > 100 µM (inactive), the GI50 (NCI-H226) was > 100 µM (inactive) and the GI50 (NCI-H23) was > 100 µM (inactive). For the same compound, the GI50 (NCI-H460) was > 100 µM (inactive), the GI50 (NCI-H522) was > 100 µM (inactive) and the GI50 (NCI/ADR-RES) was > 100 µM (inactive). The GI50 (OVCAR-3) was > 100 µM (inactive), the GI50 (OVCAR-4) was > 100 µM (inactive) and the GI50 (OVCAR-5) was > 100 µM (inactive). For the same compound, the GI50 (OVCAR-8) was > 100 µM (inactive), the GI50 (PC-3) was > 100 µM (inactive) and the GI50 (RPMI-8226) was > 100 µM (inactive). The GI50 (RXF 393) was > 100 µM (inactive), the GI50 (SF-268) was > 100 µM (inactive) and the GI50 (SF-295) was > 100 µM (inactive). For the same compound, the GI50 (SK-MEL-28) was > 100 µM (inactive), the GI50 (SK-MEL-2) was > 100 µM (inactive) and the GI50 (SK-MEL-5) was > 100 µM (inactive). For the same compound, the GI50 (SK-OV-3) was > 100 µM (inactive), the GI50 (SN12C) was > 100 µM (inactive) and the GI50 (SNB-19) was > 100 µM (inactive). The GI50 (SNB-75) was > 100 µM (inactive), the GI50 (SR) was > 100 µM (inactive) and the GI50 (SW-620) was > 100 µM (inactive). For the same compound, the GI50 (T47D) was > 100 µM (inactive), the GI50 (U-251) was > 100 µM (inactive) and the GI50 (UACC-62) was > 100 µM (inactive). The GI50 (UO-31) was > 100 µM (inactive).
